In PMC10683025, “Discovery of a Hydroxylamine-Based Brain-Penetrant EGFR Inhibitor for Metastatic Non-Small-Cell Lung Cancer” (Journal of Medicinal Chemistry, 2023):
Read-outs that look alike come from different tables or passages of the source.

How the values were obtained:
[1] = system: Salmonella strains (TA98, TA100, TA1537, and TA1535); conditions: ± rat liver S9, 4 strains; 9 valid up to 50 μM
Description: (§1) Compounds were assessed for mutagenicity at the Eurofins Panlabs in 384-well plates using four Salmonella strains: TA98, to probe for frameshift mutation (with quercetin as control), TA100 and TA1535, to probe for base pair insertions/deletions (with streptozotocin as control), and TA1537, to probe for frameshift mutations (with aminacridine as control) as previously described.[78] Each compound was incubated at 37 °C for 96 h at four different concentrations (5, 10, 50, and 100 μM), with each concentration tested using 48 replicates, both with and without rat liver S9 metabolic activation. A concurrent bacterial cytotoxicity assay was run at 0.6, 1.2, 2.5, 5, 10, 25, 50, and 100 μM to rule out false negatives. Bacterial cytotoxicity was expressed as percent of control growth (OD650). Compounds with growth of less than 60% control were flagged and considered bacterial cytotoxic. […] Significances of the positive counts between the treatment and control were determined using a one-tailed Fisher’s exact test.

BCR-ABLwt = BCR-ABLwt (Homo sapiens, UniProt P00519); assay: KinaseProfiler enzymatic radiometric assay; type: biochemical; conditions: read-out: Kinase IC50
BCR-ABLwt, sequence (P00519 27-1130): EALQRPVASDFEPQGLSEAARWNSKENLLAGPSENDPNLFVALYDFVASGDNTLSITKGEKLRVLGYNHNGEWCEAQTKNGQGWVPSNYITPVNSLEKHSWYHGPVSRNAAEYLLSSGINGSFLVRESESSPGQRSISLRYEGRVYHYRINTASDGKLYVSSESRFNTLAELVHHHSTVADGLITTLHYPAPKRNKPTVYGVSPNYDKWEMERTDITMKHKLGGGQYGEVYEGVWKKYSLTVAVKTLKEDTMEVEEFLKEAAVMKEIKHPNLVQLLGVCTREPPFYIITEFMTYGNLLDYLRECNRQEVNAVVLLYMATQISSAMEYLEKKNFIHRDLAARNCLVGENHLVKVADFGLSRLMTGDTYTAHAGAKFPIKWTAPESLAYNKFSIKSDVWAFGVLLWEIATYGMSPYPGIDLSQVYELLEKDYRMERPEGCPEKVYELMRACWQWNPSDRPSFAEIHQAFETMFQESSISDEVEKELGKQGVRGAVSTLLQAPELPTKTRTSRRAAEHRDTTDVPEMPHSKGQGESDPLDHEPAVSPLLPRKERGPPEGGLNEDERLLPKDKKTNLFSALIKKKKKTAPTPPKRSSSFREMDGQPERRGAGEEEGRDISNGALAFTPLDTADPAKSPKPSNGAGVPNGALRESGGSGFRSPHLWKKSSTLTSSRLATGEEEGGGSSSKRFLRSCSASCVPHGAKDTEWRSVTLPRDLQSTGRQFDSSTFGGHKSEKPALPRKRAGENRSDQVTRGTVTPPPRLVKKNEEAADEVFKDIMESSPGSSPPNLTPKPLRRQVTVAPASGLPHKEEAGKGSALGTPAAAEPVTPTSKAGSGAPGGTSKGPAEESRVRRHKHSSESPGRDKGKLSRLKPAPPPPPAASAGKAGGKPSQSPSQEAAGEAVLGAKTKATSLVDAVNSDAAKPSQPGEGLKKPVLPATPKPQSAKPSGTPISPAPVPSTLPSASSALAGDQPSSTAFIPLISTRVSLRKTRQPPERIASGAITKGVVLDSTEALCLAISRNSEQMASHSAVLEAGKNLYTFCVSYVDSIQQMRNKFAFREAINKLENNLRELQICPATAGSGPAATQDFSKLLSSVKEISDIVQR
Description: (§2) In vitro kinase activity (inhibitor binding constants (Kd) and biochemical inhibition (IC50’s)) were assessed by Eurofins DiscoverX (Kd determinations) and Eurofins Cerep (biochemical IC50 determinations).

DRAK1 = target: T1, DRAK1 (Homo sapiens, UniProt Q9UEE5); assay: KinaseProfiler enzymatic radiometric assay; type: biochemical; conditions: read-out: Kinase IC50
T1 construct: purchased Eurofins DiscoverX (contract assay)
T1 sequence (Q9UEE5 1-414): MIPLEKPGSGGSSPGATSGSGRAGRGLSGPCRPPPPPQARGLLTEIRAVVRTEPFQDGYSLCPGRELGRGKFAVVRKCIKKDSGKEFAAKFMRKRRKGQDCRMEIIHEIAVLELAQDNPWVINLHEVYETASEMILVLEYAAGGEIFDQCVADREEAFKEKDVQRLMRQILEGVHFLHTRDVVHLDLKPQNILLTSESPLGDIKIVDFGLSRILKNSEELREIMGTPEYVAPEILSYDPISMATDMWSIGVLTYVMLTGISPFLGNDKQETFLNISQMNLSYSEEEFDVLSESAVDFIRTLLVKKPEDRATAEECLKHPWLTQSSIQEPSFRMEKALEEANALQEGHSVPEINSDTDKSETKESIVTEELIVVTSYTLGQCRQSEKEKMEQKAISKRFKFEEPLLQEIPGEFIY
Description: as §2

ERBB2 = target: T2, ERBB2 (Homo sapiens, UniProt P04626); assay: KinaseProfiler enzymatic radiometric assay; type: biochemical; conditions: read-out: Kinase IC50
T2 construct: purchased Eurofins DiscoverX (contract assay)
T2 sequence (P04626 23-1255): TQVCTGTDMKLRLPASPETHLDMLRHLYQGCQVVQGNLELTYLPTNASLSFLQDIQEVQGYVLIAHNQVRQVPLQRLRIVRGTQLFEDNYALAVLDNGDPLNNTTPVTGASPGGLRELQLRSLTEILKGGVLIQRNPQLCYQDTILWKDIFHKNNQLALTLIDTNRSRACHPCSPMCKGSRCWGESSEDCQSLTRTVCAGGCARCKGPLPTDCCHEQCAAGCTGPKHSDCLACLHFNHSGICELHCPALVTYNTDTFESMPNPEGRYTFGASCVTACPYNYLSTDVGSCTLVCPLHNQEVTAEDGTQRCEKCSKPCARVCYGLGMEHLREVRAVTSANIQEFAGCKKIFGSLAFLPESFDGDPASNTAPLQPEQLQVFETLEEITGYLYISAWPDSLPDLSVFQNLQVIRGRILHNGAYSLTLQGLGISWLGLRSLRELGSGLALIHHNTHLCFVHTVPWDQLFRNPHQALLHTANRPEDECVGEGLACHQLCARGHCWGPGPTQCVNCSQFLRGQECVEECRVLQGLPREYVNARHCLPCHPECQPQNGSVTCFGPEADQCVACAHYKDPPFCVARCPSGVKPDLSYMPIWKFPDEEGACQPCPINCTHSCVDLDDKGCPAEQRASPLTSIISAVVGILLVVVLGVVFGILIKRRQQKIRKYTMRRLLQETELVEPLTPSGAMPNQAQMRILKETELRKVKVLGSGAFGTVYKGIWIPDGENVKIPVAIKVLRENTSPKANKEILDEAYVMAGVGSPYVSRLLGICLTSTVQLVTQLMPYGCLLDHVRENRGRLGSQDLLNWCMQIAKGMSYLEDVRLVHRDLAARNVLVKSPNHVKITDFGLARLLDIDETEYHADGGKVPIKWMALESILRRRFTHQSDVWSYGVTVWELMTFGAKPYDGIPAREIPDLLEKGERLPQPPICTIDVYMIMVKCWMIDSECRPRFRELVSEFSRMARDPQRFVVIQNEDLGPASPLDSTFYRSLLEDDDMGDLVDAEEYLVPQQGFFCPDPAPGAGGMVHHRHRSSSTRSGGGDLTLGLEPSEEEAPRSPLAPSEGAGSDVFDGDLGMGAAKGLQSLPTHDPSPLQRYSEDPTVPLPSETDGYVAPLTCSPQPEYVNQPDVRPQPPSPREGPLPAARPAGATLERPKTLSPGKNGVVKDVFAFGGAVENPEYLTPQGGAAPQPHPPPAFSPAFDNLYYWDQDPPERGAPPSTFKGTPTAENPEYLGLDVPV
Description: as §2

ERBB4 = target: T3, ERBB4 (Homo sapiens, UniProt Q15303); assay: KinaseProfiler enzymatic radiometric assay; type: biochemical; conditions: read-out: Kinase IC50
T3 construct: purchased Eurofins Cerep (KinaseProfiler, contract assay)
T3 sequence (Q15303 26-1308): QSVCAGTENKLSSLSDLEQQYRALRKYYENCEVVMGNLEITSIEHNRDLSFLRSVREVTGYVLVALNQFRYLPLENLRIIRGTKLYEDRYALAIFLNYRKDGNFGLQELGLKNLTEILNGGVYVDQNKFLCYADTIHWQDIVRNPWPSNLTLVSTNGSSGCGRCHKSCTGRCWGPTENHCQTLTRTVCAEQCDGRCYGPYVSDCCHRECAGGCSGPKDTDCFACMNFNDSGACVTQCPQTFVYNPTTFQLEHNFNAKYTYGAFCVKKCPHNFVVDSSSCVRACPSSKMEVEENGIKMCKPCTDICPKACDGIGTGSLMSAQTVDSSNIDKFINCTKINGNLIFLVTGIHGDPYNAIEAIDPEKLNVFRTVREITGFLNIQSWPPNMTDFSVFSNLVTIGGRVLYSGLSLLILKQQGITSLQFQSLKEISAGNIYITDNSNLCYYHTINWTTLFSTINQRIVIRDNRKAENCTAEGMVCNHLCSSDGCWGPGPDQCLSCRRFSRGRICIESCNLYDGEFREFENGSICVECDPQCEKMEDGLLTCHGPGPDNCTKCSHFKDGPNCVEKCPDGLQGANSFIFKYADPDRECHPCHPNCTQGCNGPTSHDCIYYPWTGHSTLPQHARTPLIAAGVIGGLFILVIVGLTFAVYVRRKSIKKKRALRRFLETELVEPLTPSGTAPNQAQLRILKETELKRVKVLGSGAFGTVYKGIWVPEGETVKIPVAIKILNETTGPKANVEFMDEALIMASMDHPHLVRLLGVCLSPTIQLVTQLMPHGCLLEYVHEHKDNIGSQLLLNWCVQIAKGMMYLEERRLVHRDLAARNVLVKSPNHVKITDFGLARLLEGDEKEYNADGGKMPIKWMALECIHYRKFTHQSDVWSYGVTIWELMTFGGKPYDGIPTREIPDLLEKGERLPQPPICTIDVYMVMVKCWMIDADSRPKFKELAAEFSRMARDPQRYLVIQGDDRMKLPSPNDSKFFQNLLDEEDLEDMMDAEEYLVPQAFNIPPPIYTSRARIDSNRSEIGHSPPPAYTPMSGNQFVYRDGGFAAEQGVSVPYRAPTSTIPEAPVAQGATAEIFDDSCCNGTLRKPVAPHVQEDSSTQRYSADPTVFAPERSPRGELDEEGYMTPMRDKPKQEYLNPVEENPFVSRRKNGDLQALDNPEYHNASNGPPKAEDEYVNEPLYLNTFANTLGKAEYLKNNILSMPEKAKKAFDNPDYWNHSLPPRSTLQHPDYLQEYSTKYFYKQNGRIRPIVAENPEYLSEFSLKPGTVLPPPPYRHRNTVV
Description: as §2

LYN = target: T4, LYN (Homo sapiens, UniProt P07948); assay: KinaseProfiler enzymatic radiometric assay; type: biochemical; conditions: read-out: Kinase IC50
T4 construct: purchased Eurofins DiscoverX (contract assay)
T4 sequence (P07948 whole entry): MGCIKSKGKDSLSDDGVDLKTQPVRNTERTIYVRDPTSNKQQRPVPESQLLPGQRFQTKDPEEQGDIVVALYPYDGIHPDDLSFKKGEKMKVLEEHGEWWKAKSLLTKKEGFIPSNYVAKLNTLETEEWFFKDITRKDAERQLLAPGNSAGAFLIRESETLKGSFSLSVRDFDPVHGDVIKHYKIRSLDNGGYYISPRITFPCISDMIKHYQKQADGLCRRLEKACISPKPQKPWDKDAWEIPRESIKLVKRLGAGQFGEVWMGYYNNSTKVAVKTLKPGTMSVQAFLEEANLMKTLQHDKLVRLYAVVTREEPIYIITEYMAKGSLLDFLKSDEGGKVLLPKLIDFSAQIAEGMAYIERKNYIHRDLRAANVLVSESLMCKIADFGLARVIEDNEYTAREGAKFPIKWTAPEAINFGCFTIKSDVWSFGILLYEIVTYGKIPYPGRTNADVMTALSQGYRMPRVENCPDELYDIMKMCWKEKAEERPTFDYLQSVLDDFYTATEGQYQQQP
Description: as §2

CYP1A2 = target: T5, CYP1A2 (Homo sapiens, UniProt P05177); assay: CYP450 inhibition in human liver microsomes; type: in vitro ADME
T5 construct: tissue BD Gentest; host or cells: pooled human liver microsomes
Description: The activities tested were CYP1A2-mediated phenacetin O-demethylation, CYP2C19-mediated (S)-mephenyotin 4′-hydroxylation, CYP2C9-mediated diclofenac 4′-hydroxylation, CYP2D6-mediated dextromethorphan O-demethylation, and CYP3A4-mediated midazolam 1′-hydroxylation. […] The reactions were initiated by adding NADPH (1 mM final concentration) after a 5 min preincubation, and the assay was run in duplicate (n = 2). Samples were analyzed by ultra-performance liquid chromatography tandem mass spectrometry (UPLC-MS/MS).

TA100 = system: TA100; parameters: species or system Salmonella;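 for Count (# of wells): Revertant-positive wells among 48 replicate wells per concentration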
Description: as §1, with “Each compound was incubated at 37 °C for 96 h at four different concentrations (5, 10, 50, and 100 μM), with each concentration tested using 48 replicates, both with and without rat liver S9 metabolic activation.” left out

TA1537 = system: TA1537; parameters: species or system Salmonella;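 for Count (# of wells): Revertant-positive wells among 48 replicate wells per concentration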
Description: as §1, with “Each compound was incubated at 37 °C for 96 h at four different concentrations (5, 10, 50, and 100 μM), with each concentration tested using 48 replicates, both with and without rat liver S9 metabolic activation.” left out

TA98 = system: TA98; parameters: species or system Salmonella;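 for Count (# of wells): Revertant-positive wells among 48 replicate wells per concentration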
Description: as §1, with “Each compound was incubated at 37 °C for 96 h at four different concentrations (5, 10, 50, and 100 μM), with each concentration tested using 48 replicates, both with and without rat liver S9 metabolic activation.” left out

TA1535 = system: TA1535; parameters: species or system Salmonella
BMX = target: T6, BMX (Homo sapiens, UniProt P51813); assay: KINOMEScan; type: binding; conditions: read-out: Percent Control
T6 construct: purchased Eurofins DiscoverX (KINOMEscan)
T6 sequence (P51813 whole entry): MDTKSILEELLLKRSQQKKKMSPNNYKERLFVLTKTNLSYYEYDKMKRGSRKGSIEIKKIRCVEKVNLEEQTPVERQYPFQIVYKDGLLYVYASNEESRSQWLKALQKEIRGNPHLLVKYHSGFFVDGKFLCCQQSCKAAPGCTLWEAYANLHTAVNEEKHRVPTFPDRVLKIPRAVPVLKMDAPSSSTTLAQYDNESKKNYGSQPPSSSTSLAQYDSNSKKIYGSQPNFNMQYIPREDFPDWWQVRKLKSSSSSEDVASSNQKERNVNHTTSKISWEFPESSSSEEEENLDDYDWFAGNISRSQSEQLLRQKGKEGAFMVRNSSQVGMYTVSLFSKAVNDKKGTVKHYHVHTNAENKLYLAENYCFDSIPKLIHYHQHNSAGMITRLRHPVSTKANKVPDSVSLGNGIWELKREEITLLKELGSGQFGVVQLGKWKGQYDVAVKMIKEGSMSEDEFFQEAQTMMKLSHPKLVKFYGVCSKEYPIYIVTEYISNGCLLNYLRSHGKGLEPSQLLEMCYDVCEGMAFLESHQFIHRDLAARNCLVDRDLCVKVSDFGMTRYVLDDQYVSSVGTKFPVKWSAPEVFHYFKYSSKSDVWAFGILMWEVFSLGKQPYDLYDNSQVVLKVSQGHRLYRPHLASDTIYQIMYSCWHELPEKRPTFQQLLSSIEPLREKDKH
Description: Percent control was mapped onto the kinome tree using TREEspot.

COc1cc2ncnc(Nc3cccc(Cl)c3F)c2cc1OCCON1CCOCC1 [Compound 7, N-(3-Chloro-2-fluorophenyl)-7-methoxy-6-(2-(morpholinooxy)ethoxy)quinazolin-4-amine]
Negative: AMES [1]

COc1cc2ncnc(Nc3cccc(Cl)c3F)c2cc1OCCON1CCN(C)CC1 [Compound 9, N-(3-Chloro-2-fluorophenyl)-7-methoxy-6-(2-((4-methylpiperazin-1-yl)oxy)ethoxy)quinazolin-4-amine]
1: Count (# of wells) (TA100; TA100-S9, 5.0E-06 M) | Count (# of wells) (TA1537; TA1537+S9, 1.0E-04 M) | Count (# of wells) (TA1537; TA1537-S9, 5.0E-06 M) | Count (# of wells) (TA98; TA98+S9, 5.0E-05 M) | Count (# of wells) (TA1535; TA1535+S9, 5.0E-06 M)
0: Count (# of wells) (TA100; TA100+S9, 1.0E-04 M) | Count (# of wells) (TA100; TA100+S9, 5.0E-05 M) | Count (# of wells) (TA100; TA100-S9, 1.0E-04 M) | Count (# of wells) (TA100; TA100-S9, 5.0E-05 M) | Count (# of wells) (TA1537; TA1537-S9, 1.0E-04 M) | Count (# of wells) (TA1537; TA1537-S9, 1.0E-05 M) | Count (# of wells) (TA1537; TA1537-S9, 5.0E-05 M) | Count (# of wells) (TA98; TA98+S9, 1.0E-04 M) | Count (# of wells) (TA98; TA98+S9, 5.0E-06 M) | Count (# of wells) (TA98; TA98-S9, 1.0E-04 M) | Count (# of wells) (TA98; TA98-S9, 1.0E-05 M) | Count (# of wells) (TA98; TA98-S9, 5.0E-06 M) | Count (# of wells) (TA1535; TA1535+S9, 1.0E-04 M) | Count (# of wells) (TA1535; TA1535+S9, 5.0E-05 M) | Count (# of wells) (TA1535; TA1535-S9, 1.0E-04 M) | Count (# of wells) (TA1535; TA1535-S9, 1.0E-05 M) | Count (# of wells) (TA1535; TA1535-S9, 5.0E-05 M) | Count (# of wells) (TA1535; TA1535-S9, 5.0E-06 M)
58 nM: IC50 (LYN)
330 nM: IC50 (ERBB4)
1030 nM: IC50 (DRAK1)
2: Count (# of wells) (TA98; TA98+S9, 1.0E-05 M) | Count (# of wells) (TA98; TA98-S9, 5.0E-05 M)
976 nM: IC50 (BCR-ABLwt)
12 nM: IC50 (ERBB2)
-: Positive Significance (- to +++) (TA100; TA100+S9, 1.0E-04 M) | Positive Significance (- to +++) (TA100; TA100+S9, 1.0E-05 M) | Positive Significance (- to +++) (TA100; TA100+S9, 5.0E-05 M) | Positive Significance (- to +++) (TA100; TA100+S9, 5.0E-06 M) | Positive Significance (- to +++) (TA100; TA100-S9, 1.0E-04 M) | Positive Significance (- to +++) (TA100; TA100-S9, 1.0E-05 M) | Positive Significance (- to +++) (TA100; TA100-S9, 5.0E-05 M) | Positive Significance (- to +++) (TA100; TA100-S9, 5.0E-06 M) | Positive Significance (- to +++) (TA1537; TA1537+S9, 1.0E-04 M) | Positive Significance (- to +++) (TA1537; TA1537+S9, 1.0E-05 M) | Positive Significance (- to +++) (TA1537; TA1537+S9, 5.0E-05 M) | Positive Significance (- to +++) (TA1537; TA1537+S9, 5.0E-06 M) | Positive Significance (- to +++) (TA1537; TA1537-S9, 1.0E-04 M) | Positive Significance (- to +++) (TA1537; TA1537-S9, 1.0E-05 M) | Positive Significance (- to +++) (TA1537; TA1537-S9, 5.0E-05 M) | Positive Significance (- to +++) (TA1537; TA1537-S9, 5.0E-06 M) | Positive Significance (- to +++) (TA98; TA98+S9, 1.0E-04 M) | Positive Significance (- to +++) (TA98; TA98+S9, 1.0E-05 M) | Positive Significance (- to +++) (TA98; TA98+S9, 5.0E-05 M) | Positive Significance (- to +++) (TA98; TA98+S9, 5.0E-06 M) | Positive Significance (- to +++) (TA98; TA98-S9, 1.0E-04 M) | Positive Significance (- to +++) (TA98; TA98-S9, 1.0E-05 M) | Positive Significance (- to +++) (TA98; TA98-S9, 5.0E-05 M) | Positive Significance (- to +++) (TA98; TA98-S9, 5.0E-06 M) | Positive Significance (- to +++) (TA1535; TA1535+S9, 1.0E-04 M) | Positive Significance (- to +++) (TA1535; TA1535+S9, 1.0E-05 M) | Positive Significance (- to +++) (TA1535; TA1535+S9, 5.0E-05 M) | Positive Significance (- to +++) (TA1535; TA1535+S9, 5.0E-06 M) | Positive Significance (- to +++) (TA1535; TA1535-S9, 1.0E-04 M) | Positive Significance (- to +++) (TA1535; TA1535-S9, 1.0E-05 M) | Positive Significance (- to +++) (TA1535; TA1535-S9, 5.0E-05 M) | Positive Significance (- to +++) (TA1535; TA1535-S9, 5.0E-06 M)
93%: remaining binding at 1 µM (BMX)
3: Count (# of wells) (TA100; TA100+S9, 1.0E-05 M) | Count (# of wells) (TA100; TA100+S9, 5.0E-06 M) | Count (# of wells) (TA1537; TA1537+S9, 5.0E-06 M) | Count (# of wells) (TA1535; TA1535+S9, 1.0E-05 M)
> 30000 nM: IC50 (CYP1A2)
5: Count (# of wells) (TA1537; TA1537+S9, 1.0E-05 M)
4: Count (# of wells) (TA100; TA100-S9, 1.0E-05 M) | Count (# of wells) (TA1537; TA1537+S9, 5.0E-05 M)
